Experimental data: patent publication EP0051852A1, “Pyrimido(4,5-b)(1,4)thiazines and process for their preparation” (Stiftung Forschungsinstitut Borstel, priority 1980, dated 1982)

Tested on: E.coli(mutaflor)
Assay: Bacterial growth kinetics, Coulter Counter (total cell count)
Assay type: cell-based
Design: unit not given here
Details: Coulter Counter (Gesamtkeimzahl); 75.0 µmol/l PTZ alone; 37°C, modified Sauton medium
Excerpt: 2,4-Diamino-5-(3',4',5'-trimehoxybenzvl)-pyrimidins (TMP) können auf ihre eigene und in Kombination potenzierte antimikrobielle Wirkung mit Hilfe der Bakterienvermehrungskinetik wie folgt geprüft werden: • Es werden zu Bakterienkulturen (Beispiel E.coli) in der logarithmischen Wachstumsphase die genannten Inhibitoren allein oder in den oben beschriebenen Kombinationen hinzugefügt. Die Veränderung der Zahl der Bakterien als Funktion der Zeit wird mit einem Coulter Counter (Gesamtkeimzahl) bzw. mit Hilfe der Kolonienzählung (Plattentest,Lebendkeimzahl) ermittelt. Die Vermehrungskurven werden bei Abwesenheit und bei Anwesenheit der Hemmstoffe und ihrer oben beschriebenen Kombinationen ermittelt. Die aus ihnen ermittelten Änderungen in den Vermehrungsgeschwindigkeiten sin^dein Maß für die antibakterielle Wirkung.
TMP wurde 1,5 Stunden später als die anderen Verbindungen der Kultur zugesetzt.

Structure (SMILES): Nc1nc(O)c2c(n1)SCC(CO)=N2 [PTZ, 2-Amino-4-hydroxy-6-hydroxymethyl-7H-pyrimido[4,5b][1,4]thiazin]
- beobachtete Vermehrungsgeschwindigkeitskonstanten kbeob.: 3.82
